Read-outs that look alike come from different tables or passages of the source.
Experiments:
[1] = molecular target: α2C Human Adrenergic Receptor (Homo sapiens, UniProt P18825); test: Equilibrium competition binding, [3H] rauwolscine, membranes of transfected LM(tk-) cells
[2] = molecular target: T1, α2C Human Adrenergic Receptor (Homo sapiens, UniProt P18825); test: as above; remark: listed apart in the source
T1 sequence (P18825 1-462): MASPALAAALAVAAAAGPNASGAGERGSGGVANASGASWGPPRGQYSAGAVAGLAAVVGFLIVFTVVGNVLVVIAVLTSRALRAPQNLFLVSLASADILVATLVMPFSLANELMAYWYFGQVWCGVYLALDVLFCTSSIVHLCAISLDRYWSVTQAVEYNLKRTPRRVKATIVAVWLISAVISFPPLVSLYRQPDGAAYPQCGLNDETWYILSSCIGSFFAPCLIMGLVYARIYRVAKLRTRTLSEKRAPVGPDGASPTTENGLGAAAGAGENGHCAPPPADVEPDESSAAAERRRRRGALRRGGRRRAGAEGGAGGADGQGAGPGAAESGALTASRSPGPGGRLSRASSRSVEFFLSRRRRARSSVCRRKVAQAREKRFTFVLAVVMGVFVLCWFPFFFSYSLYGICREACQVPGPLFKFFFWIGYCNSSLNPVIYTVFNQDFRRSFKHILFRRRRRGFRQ

[3] = molecular target: T2, α1B Human Adrenergic Receptor (Homo sapiens, UniProt P35368); test: Equilibrium competition binding, [3H] prazosin, membranes of transfected LM(tk-) cells
T2 construct: The entire coding region of α1B(1563 bp); expressed in transfected cells; host or cells: LM(tk-) cells
T2 sequence (P35368 1-520): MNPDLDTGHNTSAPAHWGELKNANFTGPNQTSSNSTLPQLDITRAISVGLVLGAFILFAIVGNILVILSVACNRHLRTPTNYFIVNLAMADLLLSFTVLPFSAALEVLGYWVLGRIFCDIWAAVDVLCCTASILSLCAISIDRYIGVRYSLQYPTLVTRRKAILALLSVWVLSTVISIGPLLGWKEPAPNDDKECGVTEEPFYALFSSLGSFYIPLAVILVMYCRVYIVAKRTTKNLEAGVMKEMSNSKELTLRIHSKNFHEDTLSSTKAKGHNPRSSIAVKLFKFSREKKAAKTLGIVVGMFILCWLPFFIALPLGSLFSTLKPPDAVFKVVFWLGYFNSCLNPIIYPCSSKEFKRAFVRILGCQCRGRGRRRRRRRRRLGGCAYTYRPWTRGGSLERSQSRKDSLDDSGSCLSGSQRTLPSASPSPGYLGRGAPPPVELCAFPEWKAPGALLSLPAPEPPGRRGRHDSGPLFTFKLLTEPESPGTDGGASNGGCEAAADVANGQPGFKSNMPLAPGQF
Description: (§1) Binding and functional assays were performed using stably transfected human alpha adrenergic receptors. Equilibrium competition binding assays were performed with membrane preparations from cultured LM(tk-) cells stably transfected with the cloned human adrenoceptor subtypes except for α2b, which was expressed in Y-1 cells, using [^3H] prazosin for α1 receptors and [^3H] rauwolscine for α2 receptors.
(§2) Transfected cells from culture flasks were scraped into 5 ml of 5 mM Tris-HCl, 5 mM EDTA, pH 7.5, and lysed by sonication. The cell lysates were centrifuged at 1000 rpm for 5 min at 4° C., and the supernatant was centrifuged at 30,000×g for 20 min at 4° C. The pellet was suspended in 50 mM Tris-HCl, 1 mM MgCl2, and 0.1% ascorbic acid at pH 7.5. Binding of α2 antagonist [^3H] rauwolscine ([…]) to membrane preparations of LM(tk-) cells was done in a final volume of 0.25 ml and incubated at 37° C. for 20 min. Nonspecific binding was determined in the presence of 10 μM phentolamine. The reaction was stopped by filtration through GF/B filters using a cell harvester.
The construct involved ligating the full-length containing EcoRI brainstem cDNA fragment from ZapII into the expression vector. The stable cell lines were selected as described above.

[4] = molecular target: T3, α1C Human Adrenergic Receptor (Homo sapiens, UniProt P35348); test: as above
T3 construct: expressed in transfected cells; host or cells: LM(tk-) cells
T3 sequence (P35348 1-466): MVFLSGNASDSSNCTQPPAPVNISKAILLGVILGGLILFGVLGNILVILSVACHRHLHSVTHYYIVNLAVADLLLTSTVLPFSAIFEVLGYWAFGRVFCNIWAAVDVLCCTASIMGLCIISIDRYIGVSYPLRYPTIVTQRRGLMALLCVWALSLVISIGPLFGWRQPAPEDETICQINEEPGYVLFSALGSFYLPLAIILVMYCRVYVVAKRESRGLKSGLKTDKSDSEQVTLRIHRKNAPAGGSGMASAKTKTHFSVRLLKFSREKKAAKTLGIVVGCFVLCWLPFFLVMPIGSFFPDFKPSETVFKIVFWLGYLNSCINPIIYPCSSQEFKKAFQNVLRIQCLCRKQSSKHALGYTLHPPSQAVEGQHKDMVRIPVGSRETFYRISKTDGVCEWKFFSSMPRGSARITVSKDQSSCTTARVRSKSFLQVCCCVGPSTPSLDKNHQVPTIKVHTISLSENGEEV
Description: as §1, §2
The construct involved ligation three partial overlapping fragments: a 5′ 0.6 kb HincII genomic clone, a central 1.8 EcoRI hippocampal cDNA clone, and a 3′ 0.6 Kb PstI genomic clone. The hippocampal cDNA fragment overlaps with the 5′ and 3′ genomic clones so that the HincII and PstI sites at the 5 and 3′ ends of the cDNA clone, respectively, were utilized for ligation. This full-length clone was cloned into the KpnI site of the expression vector, using the 5′ and 3′ KpnI sites of the fragment, derived from vector (i.e., pBluescript) and 3′-untranslated sequences, respectively. Stable cell lines were selected as described above.

[5] = molecular target: T4, α1A Human Adrenergic Receptor (Homo sapiens, UniProt P25100); test: as above
T4 construct: expressed in transfected cells; host or cells: LM(tk-) cells
T4 sequence (P25100 1-572): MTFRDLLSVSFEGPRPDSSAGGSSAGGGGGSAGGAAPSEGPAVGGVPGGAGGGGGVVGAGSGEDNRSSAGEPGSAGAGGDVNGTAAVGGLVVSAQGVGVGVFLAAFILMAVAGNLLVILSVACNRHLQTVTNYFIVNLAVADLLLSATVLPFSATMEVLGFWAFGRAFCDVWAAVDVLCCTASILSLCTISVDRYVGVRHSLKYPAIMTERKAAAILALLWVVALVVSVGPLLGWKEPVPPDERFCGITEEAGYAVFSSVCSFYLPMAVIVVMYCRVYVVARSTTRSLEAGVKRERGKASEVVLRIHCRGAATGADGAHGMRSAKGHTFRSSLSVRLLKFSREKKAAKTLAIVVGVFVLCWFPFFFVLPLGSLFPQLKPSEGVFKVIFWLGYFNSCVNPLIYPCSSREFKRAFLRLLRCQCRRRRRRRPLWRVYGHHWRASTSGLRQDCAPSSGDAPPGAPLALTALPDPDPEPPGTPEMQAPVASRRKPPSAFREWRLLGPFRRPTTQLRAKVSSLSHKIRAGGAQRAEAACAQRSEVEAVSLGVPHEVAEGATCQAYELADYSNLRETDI
Description: as §1, §2
(§3) Stable cell lines were selected as described above.

[6] = molecular target: T5, α2B Human Adrenergic Receptor (Homo sapiens, UniProt P18089); test: Equilibrium competition binding, [3H] rauwolscine, membranes of transfected Y-1 cells
T5 construct: expressed in transfected cells; host or cells: Y-1 cells
T5 sequence (P18089 1-450): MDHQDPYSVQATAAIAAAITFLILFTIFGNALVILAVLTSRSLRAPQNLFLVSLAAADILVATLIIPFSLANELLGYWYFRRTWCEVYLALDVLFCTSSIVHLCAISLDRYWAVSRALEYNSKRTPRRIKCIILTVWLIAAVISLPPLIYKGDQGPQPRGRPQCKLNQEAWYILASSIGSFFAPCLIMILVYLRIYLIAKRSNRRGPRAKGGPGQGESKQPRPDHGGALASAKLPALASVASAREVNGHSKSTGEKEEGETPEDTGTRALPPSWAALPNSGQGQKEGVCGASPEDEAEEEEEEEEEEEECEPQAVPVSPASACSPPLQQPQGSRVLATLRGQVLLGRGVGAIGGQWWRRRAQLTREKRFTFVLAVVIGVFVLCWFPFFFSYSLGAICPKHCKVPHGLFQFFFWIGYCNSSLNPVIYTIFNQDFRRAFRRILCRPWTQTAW
Description: as §1, §3, §2

[7] = cloned human receptor, [3H] prazosin, read-out: pKi Alpha-1 B (converted)
[8] = cloned human receptor, [3H] prazosin, read-out: pKi Alpha-1 C (converted)
[9] = cloned human receptor, [3H] rauwolscine, read-out: pKi Alpha-2 B (converted)
[10] = cloned human receptor, [3H] prazosin, read-out: pKi Alpha-1 A (converted)

| SMILES | Ki [1] | Ki [2] | Ki [3, 7] | Ki [4, 8] | Ki [5] | Ki [6] | Ki [6, 9] | Ki [5, 10] | Ki [3] | Ki [4] |
| --- | --- | --- | --- | --- | --- | --- | --- | --- | --- | --- |
| CC(C)(C)c1nc2ccc(NC3=NCCN3)c(Br)c2[nH]1 | 295 nM |  |  |  |  |  |  |  |  |  |
| CCCCc1c(NC2=NCCN2)ccc2nc[nH]c12 | 120 nM |  |  |  |  |  |  |  |  |  |
| CCCCc1cc(NC2=NCCN2)cc2[nH]cnc12 | 204 nM |  |  |  |  |  |  |  |  |  |
| CCc1nc2ccc(NC3=NCCN3)c(Br)c2[nH]1 | 182 nM |  |  |  |  |  |  |  |  |  |
| Cc1cc(NC2=NCCN2)cc2[nH]cnc12 | 126 nM |  |  |  |  |  |  |  |  |  |
| Cc1cc2nc[nH]c2cc1NC1=NCCN1 | 214 nM |  |  |  |  |  |  |  |  |  |
| Cn1cnc2cc(NC3=NCCN3)ccc21 | 155 nM |  |  |  |  |  |  |  |  |  |
| CC(C)Cn1cnc2cc(NC3=NCCN3)ccc21 [Example 22, 1-Isobutyl-5-(2-imidazolin-2-ylamino)Benzimidazole] |  | 182 nM | 105000 nM | 1860 nM | 10500 nM | 427 nM |  |  |  |  |
| CC(C)Cn1cnc2c(Br)c(NC3=NCCN3)ccc21 [Example 23, 1-Isobutyl-4-bromo-5-(2-imidazolin-2-ylamino)Benzimidazole] |  | 229 nM | 38000 nM | 380 nM | 5010 nM |  | 309 nM |  |  |  |
| c1cc2c(cc1NC1=NCCN1)ncn2C1CCCC1 [Example 25, 1-Cyclopentyl-5-(2-imidazolin-2-ylamino)Benzimidazole] |  | 437 nM | 44700 nM | 9770 nM | 6170 nM | 646 nM |  |  |  |  |
| Brc1c(NC2=NCCN2)ccc2c1ncn2C1CCCC1 [Example 26, 1-Cyclopentyl-4-bromo-5-(2-imidazolin-2-ylamino)Benzimidazole] |  | 257 nM | 57500 nM | 9550 nM |  |  | 562 nM | 8910 nM |  |  |
| c1cc2ncn(C3CCCC3)c2cc1NC1=NCCN1 [Example 27, 3-Cyclopentyl-5-(2-imidazolin-2-ylamino)Benzimidazole] |  | 724 nM | 33900 nM | 6920 nM | 8320 nM | 1020 nM |  |  |  |  |
| Brc1c(NC2=NCCN2)ccc2ncn(C3CCCC3)c12 [Example 28, 3-Cyclopentyl-4-bromo-5-(2-imidazolin-2-ylamino)Benzimidazole] |  | 95.5 nM |  |  | 661 nM |  | 41.7 nM |  | 10500 nM | 3800 nM |
| c1cc2c(cc1NC1=NCCN1)ncn2CC1CCCCC1 [Example 29, 1-Cyclohexylmethyl-5-(2-imidazolin-2-ylamino)Benzimidazole] |  | 490 nM | 20900 nM | 1410 nM |  |  | 363 nM | 912 nM |  |  |
| Brc1c(NC2=NCCN2)ccc2ncn(CC3CCCCC3)c12 [Example 31, 3-Cyclohexylmethyl-4-bromo-5-(2-imidazolin-2-ylamino)Benzimidazole] |  | 38.9 nM |  |  | 257 nM |  | 37.2 nM |  | 2140 nM | 372 nM |
| c1ccc(Cn2cnc3cc(NC4=NCCN4)ccc32)cc1 [Example 32, 1-Benzyl-5-(2-imidazolin-2-ylamino)Benzimidazole] |  | 162 nM |  |  | 3720 nM |  | 50.1 nM |  | 33100 nM | 3890 nM |
| Brc1c(NC2=NCCN2)ccc2c1ncn2Cc1ccccc1 [Example 33, 1-Benzyl-4-bromo-5-(2-imidazolin-2-ylamino)Benzimidazole] |  | 162 nM | 33100 nM | 1450 nM |  |  | 13.8 nM | 1820 nM |  |  |
| c1ccc(Cn2cnc3ccc(NC4=NCCN4)cc32)cc1 [Example 34, 3-Benzyl-5-(2-imidazolin-2-ylamino)Benzimidazole] |  | 186 nM |  |  | 2570 nM |  | 89.1 nM |  | 12000 nM | 1350 nM |
| Brc1c(NC2=NCCN2)ccc2ncn(Cc3ccccc3)c12 [Example 35, 3-Benzyl-4-bromo-5-(2-imidazolin-2-ylamino)Benzimidazole] |  | 17 nM |  |  | 309 nM |  | 15.8 nM |  | 1950 nM | 794 nM |
| OCCn1cnc2ccc(NC3=NCCN3)c(Br)c21 [Example 39, 3-(2-Hydroxyethyl)-4-bromo-5-(2-imidazolin-2-ylamino)Benzimidazole] |  | 617 nM |  |  | 1580 nM |  | 490 nM |  | 11000 nM | 4790 nM |
| NCCn1cnc2c(Br)c(NC3=NCCN3)ccc21 [Example 40, 1-(2-Aminoethyl)-4-bromo-5-(2-imidazolin-2-ylamino)Benzimidazole] |  | 2820 nM | 26900 nM | 9120 nM |  |  | 955 nM | 9330 nM |  |  |
